SMILES strings stand for the structures.

For one series, the target named is T1, μ opioid receptor (MOR) (Homo sapiens, UniProt P35372).
T1 construct: host or cells: HEK293
As to the kind of experiment: cell-based. The note with it: HEK293 stably expressing μ opioid receptor, FLIPR calcium.

The target of series [1] is T2, β-arrestin signaling pathway of MOR (Homo sapiens, UniProt P35372).
T2 construct: host or cells: HEK293 (PathHunter cell line)
The experiment in a line: cell-based. The note with it: PathHunter HEK293 cells, relative to endorphin MAX control.

Series [2] in a line: Pharmacokinetic test in rats, intravenous. It is filed as in vivo. Particulars: male, SD, rat, plasma, intravenous 1 mg/kg; for AUC: read-out: curve area (AUC); for half-life: read-out: half life (T½) (converted); for Cmax: read-out: plasma concentration (Cmax). The text has this:
8-week-old male SD rats weighing 200-300 g were used as experimental animals, and LC/MS/MS method was used to determine the drug concentration in plasma at different times after the administration of the compound of Example H01, the compound of Example H04, the compound of Example H05, the compound of Example H07, the compound of Example H16, the compound of Example H17, the compound of Example H18, the compound of Example H21, and the compound of Example H24. The pharmacokinetic behavior of the compounds of the present invention in rats was studied, and its pharmacokinetic characteristics were evaluated.
A certain amount of the compounds were weighed, and dissolved in ethanol/castor oil/water=10/10/80 to form a uniform solution.
The above compounds were administered intravenously to rats at a dose of 1 mg/kg, and 0.2 ml of blood was collected from the orbit at 0.083, 0.25, 0.5, 1.0, 2.0, 4.0, 6.0, 8.0, 12.0, 24.0 hours before and after administration, and placed in an anticoagulant tube, the plasma was separated by centrifugation at 6,000 rpm for 10 minutes at 4° C., and stored at −80° C.
50 μL of plasma was taken at different times, 150 μL of acetonitrile solution containing internal standard tolbutamide (200 ng/mL) was added, the system was mixed and shaked for 5 minutes, 12000 rpm, centrifuged for 5 minutes, 100 μL of supernatant was removed, and then mixed with 200 μL of water, then the sample was loaded for analysis. The internal standard tolbutamide solid (Aladdin, T129578) powder was dissolved in DMSO to prepare into a 1 mg/mL stock solution. The stock solution was diluted with 100% acetonitrile to obtain a solution of 200 ng/mL as a protein precipitator.
The liquid chromatography system was an LC-20AD UFLC high performance liquid chromatography system (Shimadzu, LC-20AD). The mass spectrometry system was an AB Sciex API4000 triple quadrupole mass spectrometer equipped with an electrospray ionization source (ESI) (Applied Biosystems, Canada). The software used to control the liquid-mass coanalyzer and quantitative analysis was Analyst 1.6 (Applied Biosystems, Canada), and the pharmacokinetic parameters were analyzed using WinNonlin (version 5.2, Pharsight, Mountain View, Calif.) non-compartment model.
Liquid chromatographic separation was performed using AQ-C18 column (50×2.1 mm, internal diameter of […]). The column temperature was maintained at room temperature.
The compound to be tested was dissolved in DMSO to prepare a stock solution with a concentration of 1 mg/mL, and diluted with 70% acetonitrile to obtain a series of standard working solutions with concentrations of 30, 10, 3, 1, 0.3, 0.1, 0.03, and 0.01. μg/mL, and a series of standard quality control solutions (24, 8 and 0.03 μg/mL). 5 μL of standard solution and 45 μL of blank plasma matrix were mixed uniformity to obtain standard solutions (3000, 1000, 300, 100, 30, 10, 3, and 1 ng/mL) and quality control standards (plasma samples: 2400, 800, 80, and 3 ng/mL) at each concentration point of the standard curve.

A further series concerns SD rats. As to the kind of experiment: Respiratory depression in rats, arterial blood gas PCO2. It is filed as in vivo. Particulars: for PCO2, 5 min before administration: arterial blood; for PCO2, 5 min after administration / PCO2, 30 min after administration / PCO2, 60 min after administration / PCO2, 120 min after administration: intravenous single dose 0.3 mg/kg (morphine 24 mg/kg).

T2 sequence (P35372 whole entry): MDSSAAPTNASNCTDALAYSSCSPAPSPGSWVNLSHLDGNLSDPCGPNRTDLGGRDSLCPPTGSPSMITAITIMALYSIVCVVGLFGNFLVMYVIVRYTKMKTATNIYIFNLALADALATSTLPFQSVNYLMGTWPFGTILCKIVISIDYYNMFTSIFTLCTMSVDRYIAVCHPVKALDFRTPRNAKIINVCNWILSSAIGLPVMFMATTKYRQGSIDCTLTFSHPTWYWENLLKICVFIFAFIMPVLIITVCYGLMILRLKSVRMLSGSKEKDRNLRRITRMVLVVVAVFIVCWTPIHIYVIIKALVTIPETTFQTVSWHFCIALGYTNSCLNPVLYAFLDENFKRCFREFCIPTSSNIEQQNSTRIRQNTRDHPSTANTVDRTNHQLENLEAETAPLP
T1 sequence (P35372 whole entry, species assumed): as the sequence (P35372 whole entry) above

By EC50 is commonly meant the concentration needed to bring the measured effect to its halfway point. For orientation: Emax means the maximal effect, on the per cent scale that the assay sets. Usually AUC stands for concentration integrated over time. By half-life is commonly meant the time needed for the level to fall by half in the phase considered. On to `Cc1c(Cl)cccc1CNCCC1(c2ccccn2)CCOC2(CCCC2)C1` (stereo not shown) [Example H04, (3-chloro-2-methylbenzyl)-[2-(9-(pyridin-2-yl)-6-oxaspiro[4.5]decan-9-yl)ethyl]amine], for which the EC50 on μ opioid receptor (MOR) came to 6.05 nM. Besides, the Emax in series [1] is 6.12%. Further, in series [2], the AUC was determined as 494 ± 34 ng·h/mL, the half-life was 2.92 ± 0.02 h and the Cmax was 378 ± 17.5 ng/mL.
Take `FC(F)Oc1ccccc1CNCCC1(c2ccccn2)CCOC2(CCCC2)C1` (stereo not shown) [Example H16, (2-difluoromethoxybenzyl)-[2-(9-(pyridin-2-yl)-6-oxaspiro[4.5]decan-9-yl)ethyl]amine]: the EC50 at μ opioid receptor (MOR) stood at 9.06 nM. In series [1], this compound had an Emax of 3.12%. Besides, in the series on SD rats, the “PCO2, 5 min before administration” value was found to be 35.27 ± 0.43 mmHg; the “PCO2, 5 min after administration” value is 30.48 ± 1.24 mmHg; the “PCO2, 30 min after administration” value amounted to 30.03 ± 0.62 mmHg; the “PCO2, 60 min after administration” value was found to be 31.27 ± 1.2 mmHg. Besides, the “PCO2, 120 min after administration” value in the series with SD rats came to 31.83 ± 1.40 mmHg. Besides, in series [2], the AUC amounted to 1190 ± 54 ng·h/mL, the half-life is 5.3 ± 0.02 h and the Cmax was found to be 820 ± 37.5 ng/mL.
Turning to `FC(F)Oc1ccsc1CNCCC1(c2ccccn2)CCOC2(CCCC2)C1` (stereo not shown) [Example H18, ((3-difluoromethoxythiophen-2-yl)methyl)-[2-(9-(pyridin-2-yl)-6-oxaspiro[4.5]decan-9-yl)ethyl]a mine], the EC50 on μ opioid receptor (MOR) was found to be 7.32 nM. The Emax in series [1] was 0.48%. For the same compound, in the series on SD rats, the “PCO2, 5 min before administration” value amounted to 33.77 ± 0.88 mmHg; the “PCO2, 5 min after administration” value was found to be 35.48 ± 1.54 mmHg; the “PCO2, 30 min after administration” value is reported as 34.03 ± 0.69 mmHg; the “PCO2, 60 min after administration” value is 36.27 ± 1.4 mmHg. In addition, the “PCO2, 120 min after administration” value in the series with SD rats is on record as 34.83 ± 1.45 mmHg. Also, in series [2], the AUC was 582 ± 11.8 ng·h/mL, the half-life was 3.45 ± 0.55 h and the Cmax amounted to 483 ± 23.3 ng/mL.
As to `Fc1ccc(C2(CCNCc3ccccc3OC(F)(F)F)CCOC3(CCCC3)C2)nc1` (stereo not shown) [Example H21, {2-[9-(5-fluoro-pyridin-2-yl)-6-oxa-spiro[4.5]decan-9-yl]-ethyl}-(2-(trifluoromethoxy)-phenmethyl)-amine], on μ opioid receptor (MOR), the EC50 stood at 4.02 nM. The Emax in series [1] came to 0.08%. For the same compound, in the series with SD rats, the “PCO2, 5 min before administration” value is 36.77 ± 1.78 mmHg; the “PCO2, 5 min after administration” value is listed as 35.48 ± 1.72 mmHg; the “PCO2, 30 min after administration” value was 36.03 ± 1.42 mmHg; the “PCO2, 60 min after administration” value was 37.27 ± 1.94 mmHg. Also, in the series with SD rats, the “PCO2, 120 min after administration” value is listed as 36.83 ± 1.65 mmHg. Further, in series [2], the AUC was determined as 382 ± 10.8 ng·h/mL, the half-life was 2.05 ± 0.25 h and the Cmax was determined as 283 ± 13.3 ng/mL.
As for `FC(F)(F)Oc1ccc(Cl)cc1CNCCC1(c2ccccn2)CCOC2(CCCC2)C1` (stereo not shown) [Example H17, (5-chloro-2-trifluoromethoxybenzyl)-[2-(9-(pyridin-2-yl)-6-oxaspiro[4.5]decan-9-yl)ethyl]amine], at μ opioid receptor (MOR), the EC50 stood at 8.68 nM. In series [1], this compound had an Emax of 1.78%. In addition, in the series with SD rats, the “PCO2, 5 min before administration” value came to 34.77 ± 1.88 mmHg; the “PCO2, 5 min after administration” value was found to be 35.48 ± 1.74 mmHg; the “PCO2, 30 min after administration” value stood at 34.03 ± 1.69 mmHg; the “PCO2, 60 min after administration” value is on record as 34.27 ± 1.4 mmHg. Besides, the “PCO2, 120 min after administration” value with SD rats was 34.83 ± 1.15 mmHg. Also, in series [2], the AUC was 482 ± 31.8 ng·h/mL, the half-life is 1.45 ± 0.15 h and the Cmax turned out to be 388 ± 23.3 ng/mL.
As to `CNc1ccsc1C(=O)NCCC1(c2ccccn2)CCOC2(CCCC2)C1` (stereo not shown) [Example H24, 3-methylamino-thiophene-2-carboxylic acid [2-(9-pyridin-2-yl-6-oxa-spiro[4.5]decan-9-yl)-ethyl]-amide], on μ opioid receptor (MOR), the EC50 is 10.7 nM. Moreover, in series [1], the Emax worked out at 2.76%. In the series on SD rats, the “PCO2, 5 min before administration” value is listed as 36.77 ± 1.94 mmHg; the “PCO2, 5 min after administration” value is on record as 36.48 ± 1.80 mmHg; the “PCO2, 30 min after administration” value is 33.03 ± 0.72 mmHg; the “PCO2, 60 min after administration” value was determined as 36.27 ± 1.57 mmHg. The “PCO2, 120 min after administration” value with SD rats worked out at 36.83 ± 1.73 mmHg. Moreover, in series [2], the AUC stood at 682 ± 21 ng·h/mL, the half-life is 3.05 ± 0.15 h and the Cmax is 583 ± 23.3 ng/mL.

The values above are taken from US11072601B2, “μ-opioid receptor agonist and preparation method therefor and use thereof in field of medicine” (SHANGHAI SYNERGY PHARMACEUTICAL SCIENCES CO., LTD., priority 2017, dated 2021).
